The text below walks through data of ChEMBL document CHEMBL3045220, “Design, characterization, computational studies, and pharmacological evaluation of substituted-N-[(1E) substituted-phenylmethylidene]benzohydrazide analogs” (Med Chem Res, 2013).

The subject of experiment [1] is Aspergillus niger. The experiment can be described thus: Antifungal activity against Aspergillus niger by agar well diffusion method. The class given is functional. The note with it: for MIC: Aspergillus niger. Background: In agar diffusion tests the substance spreads into inoculated agar from a disc or well.
Experiment [2] has as its system Pseudomonas aeruginosa. The experiment can be described thus: Antibacterial activity against Pseudomonas aeruginosa by agar well diffusion method. The class given is functional. The note with it: for MIC: Pseudomonas aeruginosa.
The subject of experiment [3] is Staphylococcus aureus. Put plainly: Antibacterial activity against Staphylococcus aureus by agar well diffusion method. The class given is functional. The note with it: for MIC: Staphylococcus aureus.
The subject of experiment [4] is Staphylococcus epidermidis. The experiment can be described thus: Antibacterial activity against Staphylococcus epidermidis by agar well diffusion method. It counts as functional. The note with it: for MIC: Staphylococcus epidermidis.
Experiment [5] has as its system Candida albicans. Put plainly: Antifungal activity against Candida albicans by agar well diffusion method. The note with it: for MIC: Candida albicans. It counts as functional.
The nature of experiment [6]: Antioxidant activity assessed as Mo(6) reduction activity after 60 min by UV-Vis spectrophotometric analysis. It counts as functional.
Experiment [7] deals with Escherichia coli. Put plainly: Antibacterial activity against Escherichia coli by agar well diffusion method. The note with it: for MIC: Escherichia coli. It counts as functional.
The nature of experiment [8]: Anti-inflammatory activity assessed as inhibition of albumin denaturation incubated for 15 min at 27 degC followed by incubation at 60 degC for 10 min by UV-Vis spectrophotometric analysis.
A short description of experiment [9]: Antioxidant activity assessed as H2O2 scavenging activity after 10 min by UV-Vis spectrophotometric analysis. The class given is functional.

Broadly, the MIC is the lowest concentration found to suppress growth. A low value points to greater potency. The term IC50 denotes the concentration needed to halve the response being measured.

Structures are written as SMILES. In brackets after ≈: the same amount, converted by molar mass.

Turning to `O=C(N/N=C/c1ccccc1O)c1ccc(Cl)cc1`, the “-logMIC” value in [1] amounted to 1; in experiment [2], 1.09; in [3], 1.255; in experiment [4] it was 1.53; in experiment [5] it was 1.74; in experiment [7], 1.301. The MIC in [1] came to 10 µg/mL (≈ 36.4 µM); in experiment [2], 12.5 µg/mL (≈ 45.5 µM); in [3], 18 µg/mL (≈ 65.5 µM); in experiment [4], 34 µg/mL (≈ 124 µM); in experiment [5], 55 µg/mL (≈ 200 µM); in experiment [7], 20 µg/mL (≈ 72.8 µM). Further, the IC50 was 50 µg/mL (≈ 182 µM) in experiment [6], 95 µg/mL (≈ 346 µM) in experiment [8] and 34 µg/mL (≈ 124 µM) in experiment [9].
For the compound `O=C(N/N=C/c1ccccc1)c1ccccc1C(=O)c1ccccc1`, the “-logMIC” value was found to be 0.81 in experiment [2]; 1.477 in experiment [3]; 1.69 in [4]; 2 in [5]; 1.924 in experiment [7]. Further, the MIC in experiment [2] turned out to be 6.5 µg/mL (≈ 19.8 µM); in experiment [3], 30 µg/mL (≈ 91.4 µM); in experiment [4], 50 µg/mL (≈ 152 µM); in experiment [5], 100 µg/mL (≈ 305 µM); in [7], 84 µg/mL (≈ 256 µM). Also, the values for the IC50 in [6], in [8] and in [9] were 49 µg/mL (≈ 149 µM), 105 µg/mL (≈ 320 µM) and 152 µg/mL (≈ 463 µM), respectively.
Take `Cc1ccc(/C=N/NC(=O)c2ccccc2C(=O)c2ccccc2)cc1`: the “-logMIC” value in experiment [2] came to 1.4; in experiment [3] it was 1.531; in [4], 2.3; in experiment [5], 1.698; in [7], 2.225. For the same compound, the MIC came out at 25 µg/mL (≈ 73 µM) in experiment [2]; 34 µg/mL (≈ 99.3 µM) in [3]; 200 µg/mL (≈ 584 µM) in experiment [4]; 50 µg/mL (≈ 146 µM) in [5]; 168 µg/mL (≈ 491 µM) in experiment [7]. Moreover, the IC50 is 5 µg/mL (≈ 14.6 µM) in [6], 12 µg/mL (≈ 35 µM) in [8] and 84 µg/mL (≈ 245 µM) in experiment [9].
With `O=C(N/N=C/c1ccccc1[N+](=O)[O-])c1ccccc1C(=O)c1ccccc1`, the “-logMIC” value in [2] turned out to be 1.4; in experiment [3], 1.255; in experiment [4], 1.47; in experiment [5], 1.397; in experiment [7] it was 1.301. Further, the MIC in [2] worked out at 25 µg/mL (≈ 67 µM); in experiment [3] it was 18 µg/mL (≈ 48.2 µM); in experiment [4], 30 µg/mL (≈ 80.3 µM); in experiment [5], 25 µg/mL (≈ 67 µM); in experiment [7], 20 µg/mL (≈ 53.6 µM). Further, the IC50 in [6] came out at 42 µg/mL (≈ 112 µM); in [8], 75 µg/mL (≈ 201 µM); in experiment [9], 101 µg/mL (≈ 271 µM).
Consider `O=C(N/N=C/c1ccc([N+](=O)[O-])cc1)c1ccc(Cl)cc1`, for which the “-logMIC” value in experiment [2] is listed as 1.3; in [3], 1.301; in [5], 1.301; in [7], 1.531. Besides, the MIC in experiment [2] turned out to be 20 µg/mL (≈ 65.9 µM); in experiment [3], 20 µg/mL (≈ 65.9 µM); in [4] it was 100 µg/mL (≈ 329 µM); in [5] it was 20 µg/mL (≈ 65.9 µM); in experiment [7], 34 µg/mL (≈ 112 µM). For the same compound, the IC50 in experiment [6] is 45 µg/mL (≈ 148 µM); in experiment [8] it was 85 µg/mL (≈ 280 µM); in experiment [9], 1.8 µg/mL (≈ 5.93 µM).
As for `CC1(C)S[C@@H]2[C@H](NC(=O)[C@H](N)c3ccc(O)cc3)C(=O)N2[C@H]1C(=O)O` [AMOXICILLIN], the minimum inhibitory concentration (MIC) in experiment [2] amounted to 200 µg/mL (≈ 547 µM); in [3], 12.5 µg/mL (≈ 34.2 µM); in experiment [4], 100 µg/mL (≈ 274 µM); in [7] it was 12.5 µg/mL (≈ 34.2 µM).
As for `C=CC1=C(C(=O)O)N2C(=O)[C@@H](NC(=O)/C(=N\OCC(=O)O)c3csc(N)n3)[C@H]2SC1` [CEFIXIME], the MIC in experiment [2] came out at 400 µg/mL (≈ 882 µM); in [3], 50 µg/mL (≈ 110 µM); in [4], 400 µg/mL (≈ 882 µM); in experiment [7] it was 50 µg/mL (≈ 110 µM).
Consider `O=C(O)Cc1ccccc1Nc1c(Cl)cccc1Cl` [DICLOFENAC], for which the IC50 in [8] was 71 µg/mL (≈ 240 µM).
Consider `OC(Cn1cncn1)(Cn1cncn1)c1ccc(F)cc1F` [FLUCONAZOLE], for which the results for the MIC in experiment [1] and in experiment [5] were 400 µg/mL (≈ 1310 µM) and 12.5 µg/mL (≈ 40.8 µM), respectively.
